Data: PubChem BioAssay (NCI)
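Values below derive from 48-hour exposures of cells grown in 96-well plates, with endpoints linearly interpolated between the two concentrations bracketing the appropriate inhibition level. The concentration for full growth arrest is given as TGI.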

Tests used:
Assay in all cases: growth of human tumour cells (NCI), 48 h
PC-3 prostate = tested on: PC-3 prostate
TK-10 renal = tested on: TK-10 renal
SR leukemia = tested on: SR leukemia
RXF 393 renal = tested on: RXF 393 renal
MALME-3M melanoma = tested on: MALME-3M melanoma
SW-620 colon = tested on: SW-620 colon
RPMI-8226 leukemia = tested on: RPMI-8226 leukemia
NCI/ADR-RES ovarian = tested on: NCI/ADR-RES ovarian
UO-31 renal = tested on: UO-31 renal
HOP-62 NSCLC = tested on: HOP-62 NSCLC
NCI-H226 lung = tested on: NCI-H226 lung
CAKI-1 renal = tested on: CAKI-1 renal
CCRF-CEM leukemia = tested on: CCRF-CEM leukemia
SNB-19 CNS = tested on: SNB-19 CNS
UACC-62 melanoma = tested on: UACC-62 melanoma
MDA-MB-435 = tested on: MDA-MB-435
SF-539 CNS = tested on: SF-539 CNS
MDA-N = tested on: MDA-N
SN12C renal = tested on: SN12C renal
M14 melanoma = tested on: M14 melanoma
A498 renal = tested on: A498 renal
A549 NSCLC = tested on: A549 NSCLC
MDA-MB-231 breast = tested on: MDA-MB-231 breast
HCT-116 colon = tested on: HCT-116 colon
SNB-75 CNS = tested on: SNB-75 CNS
OVCAR-4 ovarian = tested on: OVCAR-4 ovarian
MOLT-4 leukemia = tested on: MOLT-4 leukemia
HOP-92 NSCLC = tested on: HOP-92 NSCLC
SF-295 CNS = tested on: SF-295 CNS
HS 578T breast = tested on: HS 578T breast
HCT-15 colon = tested on: HCT-15 colon
SK-MEL-2 melanoma = tested on: SK-MEL-2 melanoma
BT-549 breast = tested on: BT-549 breast
OVCAR-8 ovarian = tested on: OVCAR-8 ovarian
MCF7 breast = tested on: MCF7 breast
NCI-H23 lung = tested on: NCI-H23 lung
OVCAR-5 ovarian = tested on: OVCAR-5 ovarian
SF-268 CNS = tested on: SF-268 CNS
KM12 colon = tested on: KM12 colon
U251 CNS = tested on: U251 CNS
COLO 205 colon = tested on: COLO 205 colon
786-0 renal = tested on: 786-0 renal
UACC-257 melanoma = tested on: UACC-257 melanoma
SK-MEL-5 melanoma = tested on: SK-MEL-5 melanoma
ACHN renal = tested on: ACHN renal
HL-60(TB) leukemia = tested on: HL-60(TB) leukemia
OVCAR-3 ovarian = tested on: OVCAR-3 ovarian
HT29 colon = tested on: HT29 colon
SK-OV-3 ovarian = tested on: SK-OV-3 ovarian
LOX IMVI melanoma = tested on: LOX IMVI melanoma
EKVX NSCLC = tested on: EKVX NSCLC
K-562 leukemia = tested on: K-562 leukemia
NCI-H522 lung = tested on: NCI-H522 lung
HCC-2998 colon = tested on: HCC-2998 colon
T-47D breast = tested on: T-47D breast
IGROV1 ovarian = tested on: IGROV1 ovarian
NCI-H460 lung = tested on: NCI-H460 lung
SK-MEL-28 melanoma = tested on: SK-MEL-28 melanoma
DU-145 prostate = tested on: DU-145 prostate

Measured: TGI

Cc1nnc([C@@]2(C)CC[C@H]3[C@@H](CC=C4C[C@@H](O)CC[C@@]43C)[C@@H]2CC#N)o1
not listed: HCC-2998 colon | T-47D breast | IGROV1 ovarian | NCI-H460 lung | SK-MEL-28 melanoma | DU-145 prostate
> 100 µM: all other assays above

Cn1c(=O)c2c(nc(NCCCCl)n2CC(=O)NCCCCl)n(C)c1=O
not listed: SR leukemia | MALME-3M melanoma | SF-539 CNS | MCF7 breast
> 100 µM: all other assays above
